Experiments:
Assay type in all cases: functional, organism-based
[1] = test system: Human immunodeficiency virus 1; experiment: Antiviral activity against HIV1
[2] = test system: Human immunodeficiency virus 1; experiment: Antiviral activity against HIV1 NNTRI resistant Y181C mutant
[3] = test system: Human immunodeficiency virus 1; experiment: Antiviral activity against HIV1 NNTRI resistant K103N mutant
[4] = test system: Human immunodeficiency virus 1; experiment: Antiviral activity against HIV1 NNTRI resistant Y188L mutant
[5] = test system: Human immunodeficiency virus 1; experiment: Antiviral activity against HIV1 NNTRI resistant L100I mutant
[6] = test system: Human immunodeficiency virus 1; experiment: Antiviral activity against HIV1 NNTRI resistant K103N/L100I mutant

| Compound | EC50 [1] [nM] | IC50 [1] [nM] | EC50 [2] [nM] | EC50 [3] [nM] | EC50 [4] [nM] | EC50 [5] [nM] | EC50 [6] [nM] |
| --- | --- | --- | --- | --- | --- | --- | --- |
| Cc1ccc(-n2c(C)nnc2SCC(=O)Nc2cc(Cl)ccc2Cl)cc1 | 37 | > 10000 | 769 | 1040 | > 10000 | 835 |  |
| Cc1ccc(-n2c(C)nnc2SC/C(S)=N/c2ccccc2Cl)cc1 | > 10000 | > 10000 |  |  |  |  |  |
| Cc1ccc(NC(=O)CSc2nnc(C)n2-c2ccc(C)cc2)cc1 | > 10000 | > 10000 |  |  |  |  |  |
| Cc1ccc(-n2c(C)nnc2SCC(=O)Nc2ccccc2C)cc1 | 112 | > 10000 |  |  |  |  |  |
| Cc1ccc(-n2c(C)nnc2SCC(=O)Nc2ccccc2F)cc1 | 68 | > 10000 | 4030 | 3270 | > 10000 | 1380 |  |
| CC(=O)N1CCN(C(=O)CSc2nnc(C)n2-c2ccc(C)cc2)CC1 | > 10000 | > 10000 |  |  |  |  |  |
| Cc1ccc(-n2c(C)nnc2SCC(=O)Nc2ccc(Cl)cc2)cc1 | 1360 | > 10000 |  |  |  |  |  |
| Cc1ccc(-n2c(Cc3ccccc3)nnc2SCC(=O)Nc2ccccc2Cl)cc1 | 1420 | > 10000 |  |  |  |  |  |
| Cc1ccc(-n2c(C)nnc2SCC(=O)Nc2ccccc2C#N)cc1 | 170 | > 10000 |  |  |  |  |  |
| Cc1ccc(-n2c(C)nnc2SCC(=O)Nc2cccc([N+](=O)[O-])c2)cc1 | > 10000 | > 10000 |  |  |  |  |  |
| Cc1ccc(-n2c(C)nnc2SCC(=O)Nc2ccccc2C(F)(F)F)cc1 | 72 | > 10000 | 1380 | 1510 | > 10000 | 488 |  |
| Cc1ccc(-n2c(C)nnc2SCC(=O)Nc2ccc([N+](=O)[O-])cc2)cc1 | > 10000 | > 10000 |  |  |  |  |  |
| Cc1ccc(-n2c(C)nnc2SCC(=O)Nc2ccc(Cl)cc2C)cc1 | 215 | > 10000 |  |  |  |  |  |
| Cc1ccc(-n2c(C)nnc2SCC(=O)Nc2ccc(Cl)cc2Cl)cc1 | 20 | > 10000 | 440 | 577 | > 3330 | 186 |  |
| Cc1ccc(-n2c(C)nnc2SCC(=O)Nc2ccc(Br)cc2)cc1 | > 10000 | > 10000 |  |  |  |  |  |
| COc1cccc(NC(=O)CSc2nnc(C)n2-c2ccc(C)cc2)c1 | 22 | > 10000 | 161 | 82 | 2190 | 31 |  |
| Cc1ccc(-n2c(C)nnc2SCC(=O)Nc2ccccc2Br)cc1 | > 10000 | > 10000 |  |  |  |  |  |
| COC(=O)c1ccccc1NC(=O)CSc1nnc(C)n1-c1ccc(C)cc1 | 614 | > 10000 |  |  |  |  |  |
| COc1ccc(NC(=O)CSc2nnc(C)n2-c2ccc(C)cc2)cc1 | 1840 | > 10000 |  |  |  |  |  |
| Cc1ccc(-n2c(COc3ccccc3)nnc2SCC(=O)Nc2ccccc2Cl)cc1 | 1070 | > 10000 |  |  |  |  |  |
| COc1ccc(-n2c(C)nnc2SCC(=O)Nc2ccccc2Cl)cc1 | 79 | > 10000 | 1430 | 913 | > 3330 | 1230 |  |
| Cc1ccc(-n2c(C)nnc2SCC(=O)Nc2ccccn2)cc1 | > 10000 | > 10000 |  |  |  |  |  |
| Cc1ccc(-n2c(C)nnc2SCC(=O)Nc2cccc(Br)c2)cc1 | > 10000 | > 10000 |  |  |  |  |  |
| Cc1ccc(-n2c(C)nnc2SCC(=O)Nc2ccccc2)cc1 | 2050 | > 10000 |  |  |  |  |  |
| COc1ccccc1-c1nnc(SCC(=O)Nc2ccccc2Cl)n1-c1ccc(C)cc1 | 2070 | > 10000 |  |  |  |  |  |

| Compound | EC50 [1] [nM] | IC50 [1] [nM] | EC50 [2] [nM] | EC50 [3] [nM] | EC50 [4] [nM] | EC50 [5] [nM] | EC50 [6] [nM] |
| --- | --- | --- | --- | --- | --- | --- | --- |
| Cc1nnc(SCC(=O)Nc2ccccc2Cl)n1C | > 10000 | > 10000 |  |  |  |  |  |
| COC(=O)c1cccc(NC(=O)CSc2nnc(C)n2-c2ccc(C)cc2)c1 | > 10000 | > 10000 |  |  |  |  |  |
| Cc1ccc(-n2c(C)nnc2SCC(=O)Nc2ccc(C#N)cc2)cc1 | > 10000 | > 10000 |  |  |  |  |  |
| CCCCCCCCCNC(=O)CSc1nnc(C)n1-c1ccc(C)cc1 | > 10000 | > 10000 |  |  |  |  |  |
| Cc1ccc(-n2c(SCC(=O)Nc3ccccc3Cl)nnc2-c2ccc(Cl)cc2)cc1 | 3780 | > 10000 |  |  |  |  |  |
| COC(=O)c1ccc(NC(=O)CSc2nnc(C)n2-c2ccc(C)cc2)cc1 | 822 | > 10000 |  |  |  |  |  |
| Cc1nnc(SCC(=O)Nc2ccccc2Cl)n1Cc1ccccc1 | 3410 | > 10000 |  |  |  |  |  |
| Cc1ccc(-n2c(C)nnc2SCC(=O)N(C)c2ccccc2Cl)cc1 | > 10000 | > 10000 |  |  |  |  |  |
| Cc1nnc(SCC(=O)Nc2ccccc2Cl)n1-c1ccccc1 | 310 | > 10000 |  |  |  |  |  |
| Cc1ccc(-n2c(C)nnc2SCC(=O)Nc2ccncn2)cc1 | > 10000 | > 10000 |  |  |  |  |  |
| CCn1c(C)nnc1SCC(=O)Nc1ccccc1Cl | > 10000 | > 10000 |  |  |  |  |  |
| COc1ccccc1-n1c(C)nnc1SCC(=O)Nc1ccccc1Cl | 59 | > 10000 | 1050 | 1120 | > 1650 | 100 |  |
| Cc1ccc(-n2c(C)nnc2SCC(=O)Nc2cccc(C#N)c2)cc1 | > 10000 | > 10000 |  |  |  |  |  |
| Cc1ccc(-n2c(C)nnc2SCC(=O)Nc2cccc(C(F)(F)F)c2)cc1 | 2870 | > 10000 |  |  |  |  |  |
| Cc1ccc(-n2c(C)nnc2SCC(=O)Nc2cccc(C)c2C)cc1 | 128 | > 10000 |  |  |  |  |  |
| Cc1ccc(-n2c(C)nnc2SCC(=O)N2CCCCC2)cc1 | > 10000 | > 10000 |  |  |  |  |  |
| Cc1ccc(-n2c(C)nnc2SCC(=O)N2CCOCC2)cc1 | > 10000 | > 10000 |  |  |  |  |  |
| O=C1Nc2ccc(Cl)cc2C(C#CC2CC2)(C(F)(F)F)O1 (single isomer, unassigned) [EFAVIRENZ] |  | 10000 |  | 19 |  | 13 |  |
| Cc1ccc(-n2c(C)nnc2SCC(=O)Nc2ccccc2[N+](=O)[O-])cc1 | 1 | > 10000 | 16 | 6 | 3600 |  | 24 |
| Cc1ccnc2c1NC(=O)c1cccnc1N2C1CC1 [NEVIRAPINE] |  | > 10000 | > 10000 |  | > 10000 |  |  |
| Cc1ccc(-n2c(C)nnc2SCC(=O)NC(C)(C)C)cc1 | > 10000 | > 10000 |  |  |  |  |  |
| Cc1ccc(-n2c(C)nnc2SCC(=O)Nc2ccccc2Cl)cc1 | 3 | > 10000 | 23 | 65 | 4310 |  | 182 |
| Cc1ccc(-n2c(C)nnc2SCC(=O)Nc2ccc3ccccc3c2)cc1 | 412 | > 10000 |  |  |  |  |  |
| Cc1nnc(SCC(=O)Nc2ccccc2Cl)n1-c1cccc2c1OCCO2 | 18 | > 10000 | 219 | 565 | > 3330 | 170 |  |
| Cc1ccc(-n2c(SCC(=O)Nc3ccccc3Cl)nnc2-c2ccncc2)cc1 | 4210 | > 10000 |  |  |  |  |  |

Reference: ChEMBL document CHEMBL1146046, “Synthesis and biological evaluations of sulfanyltriazoles as novel HIV-1 non-nucleoside reverse transcriptase inhibitors” (Bioorg Med Chem Lett, 2006)
